Laboratory results reported in PubChem BioAssay AID248 (DTP/NCI, 2004).
“And” between values parts separate entries of the source, which are not always exact repeats. Equal values may be shown once. Inconclusive results and toxic doses are left out. No stated cut-off is given here; in the data, active means T/C of 150% or more; inactive means T/C below 125%.

Tested on: L1210 leukemia ip in BDF1 mice, survival T/C
Assay: NCI In Vivo Anticancer Drug Screen. Data for tumor model L1210 Leukemia (intraperitoneal) in B6D2F1 (BDF1) mice
Details: endpoint: mean survival time, higher = longer survival
How it was run: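 Transplantable tumor model; survival measured in treated vs vehicle control mice. Value = treated/control.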

[1] = dose: 100.0 mg/kg/injection, schedule: Q04DX002 (ip), vehicle: saline with Tween-80
[2] = dose: 200.0 mg/kg/injection, schedule: Q04DX002 (ip), vehicle: saline with Tween-80
[3] = dose: 400.0 mg/kg/injection, schedule: Q04DX002 (ip), vehicle: saline with Tween-80
[4] = dose: 100.0 mg/kg/injection, schedule: Q01DX009 (ip), vehicle: saline with Tween-80
[5] = dose: 100.0 mg/kg/injection, schedule: Q04DX003 (ip), vehicle: saline with Tween-80
[6] = dose: 200.0 mg/kg/injection, schedule: Q04DX003 (ip), vehicle: saline with Tween-80
[7] = dose: 400.0 mg/kg/injection, schedule: Q04DX003 (ip), vehicle: saline with Tween-80
[8] = dose: 200.0 mg/kg/injection, schedule: Q01DX009 (ip), vehicle: saline with Tween-80
[9] = dose: 100.0 mg/kg/injection, schedule: Q01DX001 (ip), vehicle: saline
[10] = dose: 200.0 mg/kg/injection, schedule: Q01DX001 (ip), vehicle: saline
[11] = dose: 400.0 mg/kg/injection, schedule: Q01DX001 (ip), vehicle: saline
[12] = dose: 100.0 mg/kg/injection, schedule: Q04DX003 (ip), vehicle: Klucel (hydroxypropylcellulose) (HPC)
[13] = dose: 200.0 mg/kg/injection, schedule: Q04DX003 (ip), vehicle: Klucel (hydroxypropylcellulose) (HPC)
[14] = dose: 400.0 mg/kg/injection, schedule: Q04DX003 (ip), vehicle: Klucel (hydroxypropylcellulose) (HPC)

Measured: T/C

Cc1cccc(NC(=S)N2CCCCC2)c1
inactive: [1] 100 % of control | [2] 100 % of control | [3] 100 % of control

O=C(O)c1cc(S(=O)(=O)F)c(Cl)cc1Cl
inactive: dose: 25.0 mg/kg/injection, schedule: Q01DX009 (ip), vehicle: saline with Tween-80 102 % of control | dose: 50.0 mg/kg/injection, schedule: Q01DX009 (ip), vehicle: saline with Tween-80 103 % of control | [4] 100 % of control and 101 % of control

COc1ccc(Sc2cccc3c2C(=O)c2c(Sc4ccc(OC)cc4)cccc2C3=O)cc1
inactive: [5] 91 % of control | [6] 96 % of control | [7] 87 % of control

CSc1ccc(NC(=O)Oc2ccc(C(=O)OCc3ccccc3)cc2)cc1
inactive: dose: 100.0 mg/kg/injection, schedule: Q01DX001 (ip), vehicle: saline with Tween-80 100 % of control and 88 % of control | [4] 99 % of control and 87 % of control | [1] 97 % of control and 101 % of control | [5] 102 % of control | dose: 200.0 mg/kg/injection, schedule: Q01DX001 (ip), vehicle: saline with Tween-80 97 % of control | [8] 108 % of control and 89 % of control | [2] 97 % of control and 87 % of control | [6] 103 % of control | dose: 400.0 mg/kg/injection, schedule: Q01DX001 (ip), vehicle: saline with Tween-80 100 % of control | dose: 400.0 mg/kg/injection, schedule: Q01DX009 (ip), vehicle: saline with Tween-80 99 % of control and 92 % of control | [3] 95 % of control and 97 % of control | [7] 103 % of control

CCCCCCCCCC1OOC1(C)C (stereo not given)
inactive: dose: 50.0 mg/kg/injection, schedule: Q01DX001 (ip), vehicle: water 97 % of control | dose: 100.0 mg/kg/injection, schedule: Q01DX001 (ip), vehicle: water 93 % of control | dose: 200.0 mg/kg/injection, schedule: Q01DX001 (ip), vehicle: water 93 % of control

COc1ccc(C(=NN=C(N)N)c2ccc(OC)cc2)cc1
inactive: dose: 15.0 mg/kg/injection, schedule: Q01DX Z (ip), vehicle: saline 96 % of control | dose: 30.0 mg/kg/injection, schedule: Q01DX Z (ip), vehicle: saline 100 % of control | dose: 30.0 mg/kg/injection, schedule: Q01DX Z (oral), vehicle: saline 105 % of control | dose: 60.0 mg/kg/injection, schedule: Q01DX Z (ip), vehicle: saline 96 % of control | dose: 60.0 mg/kg/injection, schedule: Q01DX Z (oral), vehicle: saline 97 % of control | dose: 120.0 mg/kg/injection, schedule: Q01DX Z (oral), vehicle: saline 105 % of control | dose: 240.0 mg/kg/injection, schedule: Q01DX Z (oral), vehicle: saline 92 % of control | dose: 480.0 mg/kg/injection, schedule: Q01DX Z (oral), vehicle: saline 94 % of control

[N-]=[N+]=NC1=C(c2ccccc2)C(=O)C(N=[N+]=[N-])=C(c2ccccc2)C1=O
inactive: [9] 88 % of control | [10] 95 % of control | [11] 90 % of control

Nc1ncnc2c1nc(N)n2C1OC(CO)C(O)C1O (stereo not given)
inactive: [9] 115 % of control and 104 % of control | [10] 123 % of control and 104 % of control | [11] 98 % of control

O=S1(=O)CCCC(c2ccccc2)=C1c1ccccc1
inactive: dose: 50.0 mg/kg/injection, schedule: Q01DX009 (ip), vehicle: Klucel (hydroxypropylcellulose) (HPC) 102 % of control | dose: 100.0 mg/kg/injection, schedule: Q01DX009 (ip), vehicle: Klucel (hydroxypropylcellulose) (HPC) 105 % of control | dose: 200.0 mg/kg/injection, schedule: Q01DX009 (ip), vehicle: Klucel (hydroxypropylcellulose) (HPC) 91 % of control

CCOC(=O)c1ccc2c(c1)nc1c3cccc4cccc(c(=O)n21)c43
inactive: [5] 86 % of control | [6] 92 % of control | [7] 98 % of control

O=[N+]([O-])c1cccc(C=Nc2ccc(CCC3(CCl)OCCO3)cc2)c1
inactive: dose: 100.0 mg/kg/injection, schedule: Q01DX001 (ip), vehicle: gum acacia 96 % of control | dose: 200.0 mg/kg/injection, schedule: Q01DX001 (ip), vehicle: gum acacia 98 % of control | dose: 400.0 mg/kg/injection, schedule: Q01DX001 (ip), vehicle: gum acacia 98 % of control

CCCCCCCCCCCCCCCC(=O)Nc1ccc(C(C)=O)cc1
inactive: [12] 91 % of control | [13] 88 % of control | [14] 95 % of control

ClC1=C(Cl)C(Cl)=C(Cl)C1=Cc1ccccc1
inactive: dose: 3.13 mg/kg/injection, schedule: Q01DX009 (ip), vehicle: saline with Tween-80 113 % of control | dose: 6.25 mg/kg/injection, schedule: Q01DX009 (ip), vehicle: saline with Tween-80 107 % of control | dose: 25.0 mg/kg/injection, schedule: Q04DX002 (ip), vehicle: Klucel (hydroxypropylcellulose) (HPC) 100 % of control | dose: 50.0 mg/kg/injection, schedule: Q04DX002 (ip), vehicle: Klucel (hydroxypropylcellulose) (HPC) 90 % of control

C[N+](C)(C)CC1C2C=CC(C2)C1CO (stereo not given)
inactive: dose: 100.0 mg/kg/injection, schedule: Q04DX003 (ip), vehicle: saline 110 % of control | dose: 200.0 mg/kg/injection, schedule: Q04DX003 (ip), vehicle: saline 107 % of control | dose: 400.0 mg/kg/injection, schedule: Q04DX003 (ip), vehicle: saline 100 % of control

Nc1nc(=O)n(C2OC(CO)C(O)C2O)c2nc(I)[nH]c12 (stereo not given)
inactive: dose: 50.0 mg/kg/injection, schedule: Q01DX005 (ip), vehicle: saline 100 % of control | dose: 100.0 mg/kg/injection, schedule: Q01DX005 (ip), vehicle: saline 107 % of control

CCC(=O)OC/C=C/c1ccccc1
inactive: dose: 100.0 mg/kg/injection, schedule: Q01DX009 (ip), vehicle: saline 95 % of control | dose: 100.0 mg/kg/injection, schedule: Q04DX003 (ip), vehicle: alcohol 100 % of control | dose: 200.0 mg/kg/injection, schedule: Q01DX009 (ip), vehicle: saline 102 % of control | dose: 200.0 mg/kg/injection, schedule: Q04DX003 (ip), vehicle: alcohol 98 % of control | dose: 400.0 mg/kg/injection, schedule: Q01DX009 (ip), vehicle: saline 95 % of control | dose: 400.0 mg/kg/injection, schedule: Q04DX003 (ip), vehicle: alcohol 94 % of control

COc1cccc(CCOC(C)=O)c1
inactive: [1] 94 % of control | [2] 108 % of control | [3] 97 % of control

O=c1[nH]cc(COCC(F)(F)C(F)F)c(=O)[nH]1
inactive: dose: 50.0 mg/kg/injection, schedule: Q01DX005 (ip), vehicle: other 101 % of control | dose: 100.0 mg/kg/injection, schedule: Q01DX005 (ip), vehicle: other 104 % of control | dose: 200.0 mg/kg/injection, schedule: Q01DX005 (ip), vehicle: other 95 % of control | dose: 400.0 mg/kg/injection, schedule: Q01DX005 (ip), vehicle: other 95 % of control

O=C1c2ccccc2C(=O)c2cc3cc(Cl)ccc3cc21
inactive: [12] 90 % of control | [13] 87 % of control | [14] 95 % of control

c1ccc(C(c2ccccc2)[Si](c2ccccc2)(c2ccccc2)c2ccccc2)cc1
inactive: [1] 90 % of control | [2] 97 % of control

CCOc1ccc(OC/C=C(\C)CCC=C(C)C)cc1
inactive: [4] 103 % of control | [1] 101 % of control | [8] 92 % of control | [2] 94 % of control | [3] 94 % of control

O=c1[nH]nc(SCc2ccccc2)c(=O)n1C(c1ccccc1)c1ccccc1
inactive: dose: 100.0 mg/kg/injection, schedule: Q01DX001 (ip), vehicle: other 90 % of control | dose: 200.0 mg/kg/injection, schedule: Q01DX001 (ip), vehicle: other 90 % of control | dose: 400.0 mg/kg/injection, schedule: Q01DX001 (ip), vehicle: other 98 % of control

Nc1ccc(C(=O)O)cc1
inactive: [12] 96 % of control | [13] 106 % of control | [14] 113 % of control

Brc1ccc([I+]c2ccccc2)cc1
inactive: dose: 50.0 mg/kg/injection, schedule: Q01DX001 (ip), vehicle: saline 103 % of control | [9] 106 % of control | [10] 95 % of control

O=C(CC[n+]1ccccc1)NCCCCCCNC(=O)CC[n+]1ccccc1
inactive: dose: 5.0 mg/kg/injection, schedule: Q01DX001 (ip), vehicle: saline 107 % of control

O=S(=O)(c1cc(Cl)ccc1Cl)N1CCc2ccccc2C1
inactive: dose: 100.0 mg/kg/injection, schedule: Q04DX002 (ip), vehicle: gum acacia 104 % of control | dose: 200.0 mg/kg/injection, schedule: Q04DX002 (ip), vehicle: gum acacia 93 % of control | dose: 400.0 mg/kg/injection, schedule: Q04DX002 (ip), vehicle: gum acacia 93 % of control
